In PubChem BioAssay AID1996:
Values after ≈ are worked out from the molar mass of the structure shown.

Conditions: buffer; pH 7.4; 200.0 µM

SMILES	solubility kinetic
O=C(NNC(=S)NC(=O)c1ccccc1)c1cccnc1	> 45.1 µg/mL
CC(C)OP(=O)(OC(C)C)C(O)c1ccc(N(C)C)cc1 (stereo unspecified)	> 47.3 µg/mL
CC(C)(C)OC(=O)N1CCCN(C(=O)c2ccc(Cl)cc2)CC1	> 50.8 µg/mL
CNC(=O)c1oc(-c2ccc(Cl)cc2)nc1C	> 37.6 µg/mL
COc1ccc(-c2csc(-c3ccc(O)cc3)n2)cc1	< 0.6 µg/mL
O=C(c1ccc(Cl)cc1[N+](=O)[O-])N1CCOCC1	40.2 µg/mL (≈ 149 µM)
CSc1nc(=S)n(-c2ccccc2)c(C)c1C(C)=O	41.7 µg/mL (≈ 144 µM)
CCN(CC)CCN(C(=O)/C=C/c1cccs1)c1nc2ccc(F)cc2s1.Cl	< 0.3 µg/mL
Nc1ccc(SC(F)(F)F)cc1	6 µg/mL (≈ 31.1 µM)
N#C/C(=C\c1cccnc1)C(=O)Nc1ccc(Cl)cc1	5.7 µg/mL (≈ 20.1 µM)
COCCCNc1nc(N)c([N+](=O)[O-])c(NC2CCCCC2)n1	2.8 µg/mL (≈ 8.63 µM)
Cc1ccc(C(=O)N2CC=C(c3ccccc3)CC2)s1	3.1 µg/mL (≈ 10.9 µM)
COc1cccc(NC(=O)C(c2ccccc2)N2CCCC2)c1 (stereo unspecified)	> 46.6 µg/mL
C=CCn1cccc(C(=O)Nc2ccc(C)c(C)c2)c1=O	33.4 µg/mL (≈ 118 µM)
Cn1cccc1C(=O)/C(C#N)=C/c1ccc(F)cc1	36.3 µg/mL (≈ 143 µM)
Cc1ccc(S(=O)(=O)N2CCOCC2)cc1C(=O)N1CC(C)CC(C)C1 (stereo unspecified)	35.9 µg/mL (≈ 94.3 µM)
COc1cc(OC)c(C(=O)OCC(=O)Nc2ccc(N3CCOCC3)cc2)cc1OC	6.5 µg/mL (≈ 15.1 µM)
COc1ccc(/C=C/C(=O)ONC2=NCCCCC2)cc1OC	> 47.8 µg/mL
CCN(CC)CCCNc1cc(C)nc2cc(-c3cccs3)nn12	> 51.5 µg/mL
O=c1cc([O-])n(C2CCCCCC2)c(=O)[nH]1.[NH4+]	30 µg/mL
NC(=O)COC(=O)CCSc1ccc(Cl)cc1	30.2 µg/mL (≈ 110 µM)
Cc1ccc(OCC(=O)O/N=C(\N)c2ccncc2)cc1C	18.6 µg/mL (≈ 62.1 µM)
CC(C)(C)NC(=O)CSc1nc2ccccc2c(=O)[nH]1	30.9 µg/mL (≈ 106 µM)
O=C(NC1CCCCCCC1)c1cccnc1	32.5 µg/mL (≈ 140 µM)
COCCNc1nnc(Cc2ccccc2)c(=O)[nH]1	> 39 µg/mL

SMILES	solubility kinetic
O=C(O)CC(NC(=O)C1CCCCC1)c1cc([N+](=O)[O-])ccc1Cl (stereo unspecified)	> 53.2 µg/mL
CCn1c2ccccc2c2cc(C#N)c(N)nc21	0.7 µg/mL (≈ 2.96 µM)
CCCS(=O)(=O)N1CCCC(C(=O)Oc2ccc(C)c(C)c2)C1 (stereo unspecified)	< 0.7 µg/mL
CCC(=O)c1cn(CCOc2ccccc2OC)c2ccccc12	2.2 µg/mL (≈ 6.8 µM)
COc1cccc(NC(=O)c2cccc(C(=O)Nc3cccc(OC)c3)c2)c1	< 0.4 µg/mL
Cc1nnc(SCC(=O)Nc2sccc2C#N)s1	> 44.5 µg/mL
Cc1nn(-c2ccccn2)c(N)c1N=O	> 30.5 µg/mL
CC(C)CCN1CCN(Cc2cccn2-c2cccnc2)CC1CCO (stereo unspecified)	> 53.5 µg/mL
O=C(Cc1c(Cl)cccc1Cl)OCc1ccccn1	40.1 µg/mL (≈ 135 µM)
Cc1cnc(NC(=O)Cc2ccccc2F)s1	3.4 µg/mL (≈ 13.6 µM)
Cc1ccc(OCc2ccc(Br)cc2)c([N+](=O)[O-])n1	2.2 µg/mL (≈ 6.81 µM)
O=[N+]([O-])c1ccc(Cl)cc1CN1CCCCCC1	16.7 µg/mL (≈ 62.1 µM)
O=C(O)c1ccc(S(=O)(=O)NCC2CCCO2)cc1 (stereo unspecified)	34.7 µg/mL (≈ 122 µM)
COC(=O)c1ccc(C(=O)OC)c(NC(=O)C2CCCO2)c1 (stereo unspecified)	45.3 µg/mL (≈ 147 µM)
COc1cc2c(cc1OC)C(CCc1ccccc1)=NCC2	42.6 µg/mL (≈ 144 µM)
Cc1nc(-c2ccc(NC(=O)c3ccc(Br)o3)cc2)cs1	< 0.4 µg/mL
COc1ccc(N2C(=O)C(CN3CCCCC3)C2c2ccccc2)cc1 (stereo unspecified)	51.7 µg/mL (≈ 148 µM)
CCOC(=O)C[N+]1(C)CCN(C(C)=O)CC1.[Br-]	> 46.4 µg/mL
CCOc1ncccc1C(=O)NCCc1ccc(Cl)cc1	33.7 µg/mL (≈ 111 µM)
CCN(CC)c1ccc(C=Nc2cccnc2Cl)c(O)c1	33.3 µg/mL (≈ 110 µM)
CCOc1ccccc1NC(=O)COC(=O)C1CC1	> 39.5 µg/mL
COc1ccc(CN2CC(C(N)=O)Oc3ccccc32)cc1F (stereo unspecified)	35.6 µg/mL (≈ 113 µM)
O=C(NC(=S)Nc1cccc2cc(O)ccc12)c1ccco1	13.2 µg/mL (≈ 42.3 µM)
NS(=O)(=O)c1cccc(C(=O)NC2CCSc3ccccc32)c1 (stereo unspecified)	42.4 µg/mL (≈ 122 µM)
O=S1(=O)N=C(c2ccccc2)c2ccccc21	34.7 µg/mL (≈ 143 µM)

SMILES	solubility kinetic
Cc1cc(-c2nc(-c3ccncc3)no2)ccc1[N+](=O)[O-]	1.8 µg/mL (≈ 6.38 µM)
Cn1c(N)c(C(=O)COC(=O)/C=C/c2ccc(Cl)cc2Cl)c(=O)n(C)c1=O	2.9 µg/mL (≈ 7.03 µM)
Cc1nc(N)[nH]c(=O)c1Oc1cccc(C(F)(F)F)c1	35.6 µg/mL (≈ 125 µM)
c1ccc(-c2nc3ccccn3c2-c2ccccc2)cc1	10.1 µg/mL (≈ 37.4 µM)
CCOc1ccc(S(=O)(=O)NCCC(=O)N2CCC(Cc3ccccc3)CC2)cc1	12.8 µg/mL (≈ 29.7 µM)
CCN1CCN(c2cc(C)nc(-c3ccccc3O)n2)CC1	> 44.8 µg/mL
OCC(O)CNC(=S)NC1CCCCC1 (stereo unspecified)	> 34.9 µg/mL
COC(=O)c1sc(N2CCCCC2)c(C#N)c1N	2.2 µg/mL (≈ 8.29 µM)
Cc1cc(C(=O)N2CCC(C)CC2)on1	> 31.2 µg/mL
Cc1ccc(S(=O)(=O)/N=C(/Nc2cccc(O)c2)c2ccccc2)cc1	> 55 µg/mL
O=C(COC(=O)c1c(F)cccc1F)NCc1cccs1	> 46.7 µg/mL
O=C(COC(=O)c1cccnc1Cl)NCc1ccco1	> 44.2 µg/mL
CC(C)Oc1cccc(C(=O)C2CCCN(C(=O)c3ccoc3)C2)c1 (stereo unspecified)	32.3 µg/mL (≈ 94.6 µM)
COCCNC(=O)/C(C#N)=C/c1ccc(O)cc1	> 36.9 µg/mL
Cc1cc2c(=O)n(C)c(SCC(=O)Nc3ccccc3)nc2s1	0.4 µg/mL (≈ 1.16 µM)
Cc1cc2nc3n(c2cc1C)CCCN3	> 30.2 µg/mL
COc1ccccc1OCCCCN1CCC(C)CC1	30.7 µg/mL (≈ 111 µM)
CC(OC(=O)CCOc1ccccc1)C(=O)NC1CC1 (stereo unspecified)	> 41.6 µg/mL
Fc1ccccc1N1CCN(CC2CCCCC2)CC1	6.2 µg/mL (≈ 22.4 µM)
O=[N+]([O-])c1ccc(Nc2ccccc2)c2nonc12	> 38.4 µg/mL
COc1ncnc2c1ncn2CC1COC(C)(C)O1 (stereo unspecified)	34.9 µg/mL (≈ 132 µM)
CN1CCN(CC(=O)Nc2c(C(=O)c3ccccc3)oc3ccccc23)CC1	48.4 µg/mL (≈ 128 µM)
OCCCNCc1ccc(N(c2ccccc2)c2ccccc2)cc1	39 µg/mL (≈ 117 µM)
CCCOc1ccc(S(=O)(=O)N2CCN(C)CC2)c2ccccc12	39.2 µg/mL (≈ 112 µM)
C=CCNC1=C(Cl)C(=O)N(Cc2ccccc2)C1=O	5.8 µg/mL (≈ 21 µM)

SMILES	solubility kinetic
COc1cccc(NC(=O)CCN2C(=O)C3CC=CCC3C2=O)c1 (stereo unspecified)	> 49.3 µg/mL
COc1ccccc1C(=O)NCCC(=O)N(C)Cc1ccc(C)o1	> 49.6 µg/mL
CCCCS(=O)(=O)N1CCC(C(=O)NCC2CCCO2)CC1 (stereo unspecified)	46 µg/mL (≈ 138 µM)
CCOc1ccc(S(=O)(=O)N2CN(c3cccc(C(C)=O)c3)c3nc4ccccc4nc32)cc1	3.1 µg/mL (≈ 6.53 µM)
CCN(CC)C(=S)SCC(=O)Nc1ncc2c(n1)CCCC2=O	15.5 µg/mL (≈ 44 µM)
COc1ccccc1N1CCN(CCN2C(=O)C3CCCCN3C2=O)CC1 (stereo unspecified)	40.8 µg/mL (≈ 110 µM)
C/C(=N\OCC(=O)Nn1c(C)nc2ccccc2c1=O)c1cccs1	> 53.5 µg/mL
O=C(/C=C/c1ccc([N+](=O)[O-])cc1)Nc1cccc(S(=O)(=O)NC2=NCCCCC2)c1	11.5 µg/mL (≈ 26 µM)
CCn1cc(S(=O)(=O)N2CCc3ccccc3C2)cn1	> 43.7 µg/mL
COc1ccc(NC(=O)C(C)SCc2ccccc2)cc1 (stereo unspecified)	40.9 µg/mL (≈ 136 µM)
Brc1cnc2nc(SC/C=C/c3ccccc3)[nH]c2c1	0.3 µg/mL (≈ 0.866 µM)
CCc1ccc(C(N)=S)cc1	> 24.8 µg/mL
Cc1cccc(NC(=O)Nc2ccc([N+](=O)[O-])cc2)n1	< 0.1 µg/mL
Cc1cc(=O)n(Cc2ccccc2)c2ccccc12	> 37.4 µg/mL
O=C(c1c[nH]c2ccccc12)N1CCN(Cc2ccccc2)CC1	> 47.9 µg/mL
OCCNCCc1c[nH]c2ccc(OCc3ccccc3)cc12	> 46.6 µg/mL
COc1ccc(OCCCN2CCc3ccccc3C2)cc1.Cl	36.5 µg/mL
COc1cccc(CC(=O)Nc2nc3c(s2)C(=O)CC(C)(C)C3)c1	1.8 µg/mL (≈ 5.23 µM)
Cn1ncc(Br)c1C(=O)N1CCCCCC1	> 42.9 µg/mL
O=[N+]([O-])C(/C=C(/Cl)[N+](=O)[O-])=C(N1CCCCC1)N1CCCCC1	29.1 µg/mL (≈ 84.4 µM)
COC(=O)c1ccc(/C=C/C(=O)OCC(=O)Nc2sccc2C(N)=O)cc1	3.9 µg/mL (≈ 10 µM)
O=c1c2ccccc2nc(-c2ccccc2)n1-c1ccccc1O	38.3 µg/mL (≈ 122 µM)
COc1ccc2nc(SCC(=O)C(C)(C)C)[nH]c2c1	30.9 µg/mL (≈ 111 µM)
CN1CCN(c2cc3c(cc2F)c(=O)c(C(=O)O)cn3CCF)CC1	> 52.7 µg/mL
N#Cc1ccccc1NC(=O)COC(=O)CN1C(=O)C2CCCCC2C1=O (stereo unspecified)	> 55.4 µg/mL

SMILES	solubility kinetic
C=CCN1C(=O)NC(=O)/C(=C/c2ccc(OCC(=O)Nc3ccc(C)cc3)cc2)C1=O	> 62.9 µg/mL
O=C(NCCc1ccccc1)C1(S(=O)(=O)c2ccc(Cl)cc2)CC1	33.9 µg/mL (≈ 93.2 µM)
COc1cc(CN2CCc3ccccc3C2)cc([N+](=O)[O-])c1O	42.1 µg/mL (≈ 134 µM)
COc1ccc(-n2c(C)cc(/C=C3\SC(=O)NC3=O)c2C)cc1	3.9 µg/mL (≈ 11.9 µM)
COc1ccc(CC(=O)N2CCN(c3ccc(F)cc3)CC2)cc1	38.3 µg/mL (≈ 117 µM)
CCOC(=O)CSc1nc(C)c2cccc(C)c2n1	30.6 µg/mL (≈ 111 µM)
COCCNC(=O)c1ccc2c(Cl)c3c(nc2c1)CCC3	> 45.7 µg/mL
CS(=O)(=O)N(CC(=O)N1CCOCC1)c1cccc(F)c1	40.7 µg/mL (≈ 129 µM)
Cc1nn(CC(=O)NCc2cccc(F)c2)c(=O)c2cccn12	> 47.1 µg/mL
c1ccc(NCc2ccncc2)cc1	> 27.6 µg/mL
CCC(=O)NC(c1ccc(C)cc1)c1ccc2cccnc2c1O (stereo unspecified)	1.6 µg/mL (≈ 4.99 µM)
CCc1noc(C)c1C(=O)NCCc1ccc(Cl)cc1	> 43.9 µg/mL
CC(C)c1nc2sc3c(=S)nc[nH]c3c2c2c1CCC2	4.5 µg/mL (≈ 14.9 µM)
COc1ccc(C2(C(=O)Nc3ccc(C)cc3)CCOCC2)cc1	> 48.8 µg/mL
Cc1cc(/C=N/NC(N)=O)c(C)n1C1CCCCC1	> 39.4 µg/mL
O=C(NC1CCC(O)CC1)c1ccc(Br)o1 (stereo unspecified)	> 43.2 µg/mL
O=C(NCCC1=CCCCC1)c1cc(-c2ccncc2)nc2ccccc12	1.2 µg/mL (≈ 3.36 µM)
OCCC1CN(Cc2ccsc2)CCN1C1CCCC1 (stereo unspecified)	> 44.2 µg/mL
CCOC(=O)CNC(=O)Cc1ccc(Cl)cc1	> 38.4 µg/mL
O=C(O/N=C(/c1ccccc1)c1ccncc1)c1cccc(F)c1	2.1 µg/mL (≈ 6.56 µM)
Cc1ccc(C(=O)CCC(=O)Nc2ccccc2C)c(C)c1	1.3 µg/mL (≈ 4.4 µM)
